{3CholTEG} = cholesteryl-TEG conjugate
How the values were obtained:
[1] = tested on: Klebsiella pneumoniae ATCC BAA-1705; experiment: Growth assays / MIC / viability (OD600, CFU) with meropenem; format: cell-based
Procedure: Cultures were incubated at 37° C. with continuous shaking and the optical density OD600 was recorded every 30 minutes using Ultrospec 10 (biochrom). Viability was tested by serial dilutions (1:100) of the bacterial suspensions and spots were plated on LB plates. The plates were incubated at 37° C. and on the next day CFU was counted to determine culture viability.

Klebsiella pneumoniae = experiment: Lung ex-vivo infection model (mouse lung punches, CFU); format: cell-based; settings: sub-toxic meropenem alone or with DNAzyme/scramble; 24 hours
Procedure: Lungs were harvested from 5-10 mice (C57BL/6, 6-8 weeks old) and placed in petri dishes containing DMEM 5% FCS. The tissue was divided into circular pieces 3 mm in diameter with a biopsy punch and transferred to poly-propanol tubes with 3 ml DMEM. DMEM was applied with meropenem and DNAzymes, as indicated. To each respective tube 10 μl of mid-logarithmic Klebsiella pneumoniae culture was added—with three technical repeats for each condition. The plates were incubated at 37° C. for approximately 1 days (24 hours), washed twice with PBS.
For CFU of bacteria infecting ex vivo tissue culture: individual punches or their growth media were collected, Punches were resuspended in 1 ml PBS (Biological Industries), and free-living bacteria were pelleted and resuspended in PBS at the same volume. Samples were thoroughly vortexed (5 min). The samples were then mildly manually crushed using 1.5 ml pestle. In all cases, to determine the number of viable cells, samples were serially diluted in PBS, plated on LB plates, and colonies were counted after incubation at 37° C. overnight.

[2] = tested on: Klebsiella pneumoniae strain ATCC BAA-1705; experiment: Galleria mellonella virulence assay (larvae viability); format: in vivo; settings: infected G. mellonella larvae
Procedure: Larvae virulence experiments were performed in the facilities of Pharmaseed LTD (Ness Ziona, Israel). G. larvae were obtained from BioSystems Technologies (Exeter, UK) and stored in the shipment boxes at 15° C. for two weeks or at room temperature for immediate use with no requirement of food. Larvae were randomly selected from a large batch for an approximate weight of 250±25 mg. Larvae were separated from sawdust and selected for plumped, lighter colored worms. Darker colored, dehydrated worms, were discarded. Each treatment group (20 larvae per group) contained 10 larvae placed in a 10 cm empty Petri dish (2 dishes per treatment group), on a filter paper.
Bacterial inoculums were prepared from cultures grown overnight at 37° C. in TSB medium (HyLabs, Israel) and washed with sterile 1×PBS. Bacterial suspension concentration was determined by McFarland (Densicheck plus, Biomerieux) and diluted in sterile PBS to receive 10^9 CFU/mL. Serial dilutions of the bacterial suspensions were made and spots were plated on blood agar plates. The plates were incubated at 37° C. and on the next day CFU was counted in order to determine final injected bacterial concentrations.
Each larva was initially injected with 5×10^5 cells into the proleg. A second injection to the proleg was done with meropenem (10 μg/g), meropenem+DNAzyme (8.52 μg/g) or sterile PBS. […]

[3] = tested on: Klebsiella pneumoniae (ATCC BAA-1705); experiment: KP infected thigh muscle model in neutropenic mice; format: in vivo; settings: SC TID, 240 mg/kg meropenem alone or with KPC-337 16, 24 or 32 mg/kg
Procedure: Neutropenia induction: The experiments were performed on female ICR mice age 9-10 weeks. At day (−4) neutropenia induction was performed by cyclophosphamide intraperitoneal (IP) injection at 150 mg/kg and a volume of 10 mL/kg. At day (−1) neutropenia maintenance was performed by cyclophosphamide IP injection at 100 mg/kg and a volume of 10 mL/kg.
Bacterial suspension preparation: At day (−4) KP (ATCC® BAA-1705™) bacteria was streaked out from −80° C. glycerol stock onto LB medium and incubated at 37° C. for 20 hours and then stored at 2-8° C. At day (−1) single colonies of the KP (ATCC® BAA-1705™ bacteria) were picked by using an inoculation loop (Greiner, 731175) and suspended in 20 mL Tryptic Soy broth (TSB) (Hylabs, BIO-MO11) in Erlenmeyer and incubated at 37° C. overnight (=starter) with shaking at 180 rpm. In the morning of dosing day, bacterial starter was diluted in fresh TSB (total of 20 mL) and incubated for about 1-3 hours at 37° C. […] Bacterial suspension concentration was determined by McFarland (Densicheck plus, Biomerieux) and diluted in sterile PBS to a concentration of 2.2×10^7 CFU/mL. […]
Bacterial burden determination: Homogenate samples dilutions were plated on LB agar plates at various dilutions to determine the colony forming units (CFUs). Plates were incubated overnight (at 37° C.), and bacterial burden was calculated and expressed as CFUs/gram of tissue.

bla-KPC RNA transcripts = experiment: Bla-KPC quantification from bacterial cells (qPCR); format: cell-based; settings: DNAzyme 1.25 μM with sub-toxic meropenem (128 μg/ml), 20 minutes; vs untreated control
Procedure: Total RNA was extracted from each sample using RNeasy Mini Kit (Qiagen), according to the manufacturer's instructions. The concentration, purity, and integrity of total RNA was determined using NanoDrop and gel electrophoresis. cDNA synthesis was performed using iScript™ cDNA synthesis (Bio-Rad) according to the manufacturer's instructions. Equal amounts of total RNA (1000 ng/20 μL) were reverse-transcribed in all samples. Reactions were incubated in a CFX96 Touch Real-Time PCR detection system (Bio-Rad) by the following program: 25° C. for 5 minutes, 46° C. for 20 minutes, 95° C. for 60 seconds. Bla-KPC expression was determined by qPCR, with primers designed using NCBI primer-BLAST. qPCR analysis was performed using the iTaq Universal SYBR Green Supermix (Bio-Rad) according to the manufacturer's instructions, in a CFX96 system by the following program: 95° C. for 3 minutes, 39 cycles of 95° C. for 10 seconds and 55° C. for 30 seconds. Melt curves were generated for each sample by heating PCR amplicons from 65° C. to 95° C. with a gradual increase of 0.5° C./0.5 s.

HT-29 cells = format: cell-based; settings: HT-29 human colorectal adenocarcinoma cells, 72 hours; read-out: IC50 of toxicity
Procedure: HT-29 cells (ATCC) were seeded in 24-well plates at 200,000 cells per well. DNAzyme were added to the medium at different concentrations. After 72 hours, PrestoBlue reagent (A13262, Life Technologies Ltd.) was added as a cell viability indicator.

β-lactamase = settings: DNAzyme 1.25 M (so in the source) with 128 μg/ml meropenem, 1 h; vs untreated control
Procedure: Bacterial strains were streaked from frozen LB+glycerol stocks onto LB agar plates and incubate for 24 hours at 37° C. Single colonies were grown overnight at 37° C. in 3 ml of LB. Cultures were diluted 1:1000 in 2 ml LB supplemented with 128 μg/ml meropenem and DNAzyme were added to a final concentration of 1.25 M. Cultures were incubated at 37° C. with continuous shaking for 1 h. Measurement of the β-lactamase activity assay was done using colorimetric kit (abcam), according to the manufacture's protocol.

Compound	MIC ([1]; Klebsiella pneumoniae, ATCCBAA1705, without DNAzyme) [µg/mL]	reduction of capacity of the bacteria to infect and colonize lung tissue (bacterial load in the tissue) (Klebsiella pneumoniae)	reduction of the free-living cells that remained in the growth media (Klebsiella pneumoniae)	reduction of the viability of the larvae ([2]; sub-toxic meropenem 10 μg/g alone or with scramble) [%]	reduction of bacterial load in the infection site [3]	reduction of transcript levels of bla-KPC (bla-KPC RNA transcripts)	growth inhibitory effect (optical density) ([1]; combination of subtoxic meropenem concentration and DNAzyme)	effect on viability of the bacterial cells (cell counts over time) ([1]; combined treatment of meropenem and DNAzyme)	reduction of MIC levels ([1]; meropenem MIC with vs without DNAzyme)	MIC of meropenem ([1]; with addition of DNAzyme KPC-337) [µg/mL]	larvae viability ([2]; sub-toxic meropenem 10 μg/g with DNAzyme (8.52 μg/g)) [%]	IC50 (HT-29 cells) [µM]	reduction of β-lactamase activity (β-lactamase) [%]
C[C@@H](O)[C@H]1C(=O)N2C(C(=O)O)=C(S[C@@H]3CN[C@H](C(=O)N(C)C)C3)[C@H](C)[C@H]12 [meropenem, reference compound]	256	did not reduced the bacterial load	did not reduced the bacterial load	40	slightly reduced the bacterial load	–	–	–	–	–	–	–	–
GCCTGTTGggctagctacaacgaCAGATATTT/3CholTEG/ (GCCTGTTGGGCTAGCTACAACGACAGATATTT; 3' {3CholTEG}, sugars by position and backbone not given here) [KPC-337]	–	1.5-2 fold	1-1.5 fold change	–	2-3 log fold	two fold	complete arrest of growth	bactericidal	two fold	128	100	20	70
